# Assay results published in US9149038B2, “4-amino-6-(heterocyclic)picolinates and 6-amino-2-(heterocyclic)pyrimidine-4-carboxylates and their use as herbicides” (Dow AgroSciences LLC, priority 2013, dated 2015).
# Like-named read-outs stand apart in the source and are kept apart here.
# Tested on: Wheat and Barley and weed species
# Assay: Post-Emergent Test III: postemergent herbicidal activity in wheat and barley, visual rating after 21 d and probit GR20/GR50/GR80/GR90 (Tables 9-13)
# Type: in vivo
# Details: for pest or weed control at 35 g/ha / pest or weed control at 70 g/ha / pest or weed control at 140 g/ha: post-emergence, 504 h
# From the text: Herbicidal evaluations were made visually on a scale of 0 to 100 where 0 represents no activity and 100 represents complete plant death.
# Seeds of the desired test plant species were planted in Sun Gro MetroMix® 306 planting mixture, which typically has a pH of 6.0 to 6.8 and an organic matter content of about 30 percent, in plastic pots with a surface area of 103.2 square centimeters (cm^2). When required to ensure good germination and healthy plants, a fungicide treatment and/or other chemical or physical treatment was applied. The plants were grown for 7-36 days (d) in a greenhouse with an approximate 14 hour (h) photoperiod which was maintained at about 18° C. during the day and 17° C. during the night. Nutrients and water were added on a regular basis and supplemental lighting was provided with overhead metal halide 1000-Watt lamps as necessary. The plants were employed for testing when they reached the second or third true leaf stage.
# A weighed amount, determined by the highest rate to be tested, of each test compound was placed in a 25 mL glass vial and was dissolved in 4 mL of a 97:3 v/v mixture of acetone and DMSO to obtain concentrated stock solutions. […] The concentrated stock solutions obtained were diluted with 20 mL of an aqueous mixture containing acetone, water, isopropyl alcohol, DMSO, Agri-Dex crop oil concentrate, and X-77 surfactant in a 48:39:10:1.5:1.5:0.02 v/v ratio to obtain spray solutions containing the highest application rates. Additional application rates were obtained by serial dilution of 12 mL of the high rate solution into a solution containing 2 mL of a 97:3 v/v mixture of acetone and DMSO and 10 mL of an aqueous mixture containing acetone, water, isopropyl alcohol, DMSO, Agri-Dex crop oil concentrate, and X-77 surfactant in a 48:39:10:1.5:1.5:0.02 v/v ratio to obtain ½×, ¼×, ⅛× and 1/16× rates of the high rate. Compound requirements are based upon a 12 mL application volume at a rate of 187 liters per hectare (L/ha). Formulated compounds were applied to the plant material with an overhead Mandel track sprayer equipped with 8002E nozzles calibrated to deliver 187 L/ha over an application area of 0.503 square meters at a spray height of 18 inches (43 cm) above the average plant canopy height. Control plants were sprayed in the same manner with the solvent blank.
# The treated plants and control plants were placed in a greenhouse as described above and watered by subirrigation to prevent wash-off of the test compounds. After 21 d, the condition of the test plants as compared with that of the untreated plants was determined visually and scored on a scale of 0 to 100 percent where 0 corresponds to no injury and 100 corresponds to complete kill and are presented as indicated in Table 4.
# By applying the well-accepted probit analysis as described by J. Berkson in Journal of the American Statistical Society, 48, 565 (1953) and by D. Finney in “Probit Analysis” Cambridge University Press (1952), herbicidal injury of a specific compound at various rates can be used to calculate GR20, GR50, GR80 and GR90 values, which are defined as growth reduction factors that correspond to the effective dose of herbicide required to provide plant growth reduction (GR) of 20 percent, 50 percent, 80 percent and 90 percent, respectively. Probit analysis was applied to data collected from multiple dose rates of individual compounds utilizing the procedures explained in the following examples. The data for some of the dose rates and analysis of all of the dose rates are captured in the following tables.
structure (smiles),measurement,setting,value
Nc1cc(-c2cc3c(cc2F)OC(F)(F)O3)nc(C(=O)O)c1Cl [Compound 42],GR50 ALOMY,"ALOMY black-grass (Alopecurus myosuroides), growth reduction of 50%, probit analysis",11 g ai/ha
same,GR80 ALOMY,"ALOMY black-grass (Alopecurus myosuroides), growth reduction of 80%, probit analysis",25 g ai/ha
same,GR90 ALOMY,"ALOMY black-grass (Alopecurus myosuroides), growth reduction of 90%, probit analysis",40 g ai/ha
same,GR50 APESV,"APESV bentgrass (Apera spica-venti), growth reduction of 50%, probit analysis",22 g ai/ha
same,GR80 APESV,"APESV bentgrass (Apera spica-venti), growth reduction of 80%, probit analysis",81 g ai/ha
same,GR90 APESV,"APESV bentgrass (Apera spica-venti), growth reduction of 90%, probit analysis",>140 g ai/ha
same,GR20 HORVS,"HORVS barley, spring (crop), growth reduction of 20%, probit analysis",0.50 g ai/ha
same,pest or weed control at 35 g/ha,"Hordeum vulgare, HORVS barley, spring (crop), 35 g ai/ha, read-out: Visual Growth Reduction (%) 21 Days After Application HORVS",75 to 84%
same,pest or weed control at 70 g/ha,"Hordeum vulgare, HORVS barley, spring (crop), 70 g ai/ha, read-out: Visual Growth Reduction (%) 21 Days After Application HORVS",85 to 94%
same,pest or weed control at 140 g/ha,"Hordeum vulgare, HORVS barley, spring (crop), 140 g ai/ha, read-out: Visual Growth Reduction (%) 21 Days After Application HORVS",85 to 94%
same,Visual Growth Reduction (%) 21 Days After Application KCHSC,"KCHSC kochia (Kochia scoparia), 35 g ai/ha",E (45-59)
same,Visual Growth Reduction (%) 21 Days After Application KCHSC,"KCHSC kochia (Kochia scoparia), 70 g ai/ha",E (45-59)
same,Visual Growth Reduction (%) 21 Days After Application KCHSC,"KCHSC kochia (Kochia scoparia), 140 g ai/ha",D (60-74)
same,GR50 KCHSC,"KCHSC kochia (Kochia scoparia), growth reduction of 50%, probit analysis",54 g ai/ha
same,GR80 KCHSC,"KCHSC kochia (Kochia scoparia), growth reduction of 80%, probit analysis",>140 g ai/ha
same,GR90 KCHSC,"KCHSC kochia (Kochia scoparia), growth reduction of 90%, probit analysis",>140 g ai/ha
same,GR50 LOLSS,"LOLSS ryegrass, growth reduction of 50%, probit analysis",44 g ai/ha
same,GR80 LOLSS,"LOLSS ryegrass, growth reduction of 80%, probit analysis",>140 g ai/ha
same,GR90 LOLSS,"LOLSS ryegrass, growth reduction of 90%, probit analysis",>140 g ai/ha
same,GR50 SETVI,"SETVI green foxtail (Setaria viridis), growth reduction of 50%, probit analysis",10 g ai/ha
same,GR80 SETVI,"SETVI green foxtail (Setaria viridis), growth reduction of 80%, probit analysis",46 g ai/ha
same,GR90 SETVI,"SETVI green foxtail (Setaria viridis), growth reduction of 90%, probit analysis",>140 g ai/ha
same,GR20 TRZAS,"TRZAS wheat, spring (crop), growth reduction of 20%, probit analysis",0.20 g ai/ha
same,pest or weed control at 35 g/ha,"Triticum aestivum, TRZAS wheat, spring (crop), 35 g ai/ha, read-out: Visual Growth Reduction (%) 21 Days After Application TRZAS",75 to 84%
same,pest or weed control at 70 g/ha,"Triticum aestivum, TRZAS wheat, spring (crop), 70 g ai/ha, read-out: Visual Growth Reduction (%) 21 Days After Application TRZAS",75 to 84%
same,pest or weed control at 140 g/ha,"Triticum aestivum, TRZAS wheat, spring (crop), 140 g ai/ha, read-out: Visual Growth Reduction (%) 21 Days After Application TRZAS",85 to 94%
same,pest or weed control at 35 g/ha,"ALOMY black-grass (Alopecurus myosuroides), 35 g ai/ha, read-out: Visual Growth Reduction (%) 21 Days After Application ALOMY",85 to 94%
same,pest or weed control at 70 g/ha,"ALOMY black-grass (Alopecurus myosuroides), 70 g ai/ha, read-out: Visual Growth Reduction (%) 21 Days After Application ALOMY",95 to 100%
same,pest or weed control at 140 g/ha,"ALOMY black-grass (Alopecurus myosuroides), 140 g ai/ha, read-out: Visual Growth Reduction (%) 21 Days After Application ALOMY",95 to 100%
same,pest or weed control at 35 g/ha,"APESV bentgrass (Apera spica-venti), 35 g ai/ha, read-out: Visual Growth Reduction (%) 21 Days After Application APESV",60 to 74%
same,pest or weed control at 70 g/ha,"APESV bentgrass (Apera spica-venti), 70 g ai/ha, read-out: Visual Growth Reduction (%) 21 Days After Application APESV",75 to 84%
same,pest or weed control at 140 g/ha,"APESV bentgrass (Apera spica-venti), 140 g ai/ha, read-out: Visual Growth Reduction (%) 21 Days After Application APESV",85 to 94%
same,pest or weed control at 35 g/ha,"LOLSS ryegrass, 35 g ai/ha, read-out: Visual Growth Reduction (%) 21 Days After Application LOLSS",45 to 59%
same,pest or weed control at 70 g/ha,"LOLSS ryegrass, 70 g ai/ha, read-out: Visual Growth Reduction (%) 21 Days After Application LOLSS",60 to 74%
same,pest or weed control at 140 g/ha,"LOLSS ryegrass, 140 g ai/ha, read-out: Visual Growth Reduction (%) 21 Days After Application LOLSS",60 to 74%
same,pest or weed control at 35 g/ha,"SETVI green foxtail (Setaria viridis), 35 g ai/ha, read-out: Visual Growth Reduction (%) 21 Days After Application SETVI",75 to 84%
same,pest or weed control at 70 g/ha,"SETVI green foxtail (Setaria viridis), 70 g ai/ha, read-out: Visual Growth Reduction (%) 21 Days After Application SETVI",85 to 94%
same,pest or weed control at 140 g/ha,"SETVI green foxtail (Setaria viridis), 140 g ai/ha, read-out: Visual Growth Reduction (%) 21 Days After Application SETVI",95 to 100%
